Test results: ChEMBL document CHEMBL1909046, “DrugMatrix in vitro pharmacology data”

Molecular target: Cytochrome P450 3A4 (Homo sapiens, UniProt P08684); note: in other assays of this panel Not Active means under 50% inhibition at 10 µM
Conditions: bti-tn-5b1-4

Sequence of Cytochrome P450 3A4 (P08684 whole entry): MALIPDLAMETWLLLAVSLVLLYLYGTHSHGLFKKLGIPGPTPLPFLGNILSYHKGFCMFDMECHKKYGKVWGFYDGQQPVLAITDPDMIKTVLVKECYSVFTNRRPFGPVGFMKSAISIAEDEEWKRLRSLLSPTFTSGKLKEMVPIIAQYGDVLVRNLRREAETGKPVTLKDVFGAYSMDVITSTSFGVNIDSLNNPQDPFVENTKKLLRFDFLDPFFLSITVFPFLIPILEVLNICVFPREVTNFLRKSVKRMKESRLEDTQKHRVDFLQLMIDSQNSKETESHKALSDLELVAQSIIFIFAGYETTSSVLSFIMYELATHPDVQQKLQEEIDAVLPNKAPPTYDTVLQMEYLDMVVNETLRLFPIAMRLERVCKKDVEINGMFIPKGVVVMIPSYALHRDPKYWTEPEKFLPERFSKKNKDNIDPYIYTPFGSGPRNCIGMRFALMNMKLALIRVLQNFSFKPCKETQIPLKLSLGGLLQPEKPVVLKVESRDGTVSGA

Compound	IC50	Ki
Nc1nc(N)c2nc(CNc3ccc(C(=O)N[C@@H](CCC(=O)O)C(=O)O)cc3)cnc2n1 [AMINOPTERIN]	Not Active	Not Active
Nc1ccc(Cc2ccc(N)cc2)cc1	Not Active	Not Active
CCN1CCN(c2cc3c(cc2F)c(=O)c(C(=O)O)cn3C2CC2)CC1 [ENROFLOXACIN]	Not Active	Not Active
CC(C)Cc1ccc([C@H](C)C(=O)O)cc1 [DEXIBUPROFEN]	Not Active	Not Active
CO[C@H]1O[C@@H]2O[C@@]3(C)CC[C@H]4[C@H](C)CC[C@@H]([C@H]1C)[C@@]24OO3	Not Active	Not Active
Nc1ccc(C(=O)O)c(O)c1 [AMINOSALICYLIC ACID]	Not Active	Not Active
Nc1nc(F)nc2c1ncn2[C@@H]1O[C@H](CO)[C@@H](O)[C@@H]1O [FLUDARABINE]	Not Active	Not Active
CHROMIC CHLORIDE	Not Active	Not Active
O=C(O)CO [GLYCOLIC ACID]	Not Active	Not Active
COC(=O)C[C@](O)(CCC(C)(C)O)C(=O)O[C@@H]1C(OC)=C[C@]23CCCN2CCc2cc4c(cc2[C@H]13)OCO4 [HARRINGTONINE]	Not Active	Not Active
CC12CCC(CC1=O)C2(C)C (stereo unspecified) [CAMPHOR]	Not Active	Not Active
C=CCO [ALLYL ALCOHOL]	Not Active	Not Active
O=C(O)CCc1nc(-c2ccccc2)c(-c2ccccc2)o1 [OXAPROZIN]	Not Active	Not Active

Molecular target: Sodium-dependent noradrenaline transporter (Homo sapiens, UniProt P23975)
Experiment: DRUGMATRIX: Norepinephrine Transporter radioligand binding (ligand: [125I] RTI-55)
Type: cell membranes, MDCK, Membrane
Conditions: mdck; Not Active = under 50% inhibition at 10 µM

Sequence of Sodium-dependent noradrenaline transporter (P23975 whole entry): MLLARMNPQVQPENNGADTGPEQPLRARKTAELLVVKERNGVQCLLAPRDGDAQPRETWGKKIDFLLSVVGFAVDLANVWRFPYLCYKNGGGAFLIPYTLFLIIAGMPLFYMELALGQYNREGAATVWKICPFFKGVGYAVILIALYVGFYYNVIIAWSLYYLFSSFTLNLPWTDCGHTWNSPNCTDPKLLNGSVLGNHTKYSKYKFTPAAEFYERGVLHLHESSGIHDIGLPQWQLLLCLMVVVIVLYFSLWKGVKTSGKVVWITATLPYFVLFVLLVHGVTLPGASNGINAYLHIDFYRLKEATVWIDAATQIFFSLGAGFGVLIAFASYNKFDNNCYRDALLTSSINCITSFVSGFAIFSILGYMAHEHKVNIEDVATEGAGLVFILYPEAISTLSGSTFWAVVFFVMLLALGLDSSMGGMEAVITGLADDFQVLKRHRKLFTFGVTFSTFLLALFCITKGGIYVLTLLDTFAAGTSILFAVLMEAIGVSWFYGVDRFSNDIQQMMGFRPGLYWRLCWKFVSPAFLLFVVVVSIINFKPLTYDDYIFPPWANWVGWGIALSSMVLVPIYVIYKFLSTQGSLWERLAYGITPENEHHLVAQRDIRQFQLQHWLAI

Compound	IC50	Ki
Nc1nc(N)c2nc(CNc3ccc(C(=O)N[C@@H](CCC(=O)O)C(=O)O)cc3)cnc2n1 [AMINOPTERIN]	Not Active	
Nc1ccc(Cc2ccc(N)cc2)cc1	Not Active	
CCN1CCN(c2cc3c(cc2F)c(=O)c(C(=O)O)cn3C2CC2)CC1 [ENROFLOXACIN]	Not Active	
CC(C)Cc1ccc([C@H](C)C(=O)O)cc1 [DEXIBUPROFEN]	Not Active	
CO[C@H]1O[C@@H]2O[C@@]3(C)CC[C@H]4[C@H](C)CC[C@@H]([C@H]1C)[C@@]24OO3	Not Active	
Nc1ccc(C(=O)O)c(O)c1 [AMINOSALICYLIC ACID]	Not Active	
Nc1nc(F)nc2c1ncn2[C@@H]1O[C@H](CO)[C@@H](O)[C@@H]1O [FLUDARABINE]	Not Active	
CHROMIC CHLORIDE	Not Active	Not Active
O=C(O)CO [GLYCOLIC ACID]	Not Active	
COC(=O)C[C@](O)(CCC(C)(C)O)C(=O)O[C@@H]1C(OC)=C[C@]23CCCN2CCc2cc4c(cc2[C@H]13)OCO4 [HARRINGTONINE]	Not Active	
CC12CCC(CC1=O)C2(C)C (stereo unspecified) [CAMPHOR]	Not Active	
C=CCO [ALLYL ALCOHOL]	Not Active	
O=C(O)CCc1nc(-c2ccccc2)c(-c2ccccc2)o1 [OXAPROZIN]	Not Active	

Molecular target: Vasopressin V1a receptor (Homo sapiens, UniProt P37288); note: in other assays of this panel Not Active means under 50% inhibition at 10 µM
Type: cell membranes, Membrane
Conditions: hek293

Sequence of Vasopressin V1a receptor (P37288 whole entry): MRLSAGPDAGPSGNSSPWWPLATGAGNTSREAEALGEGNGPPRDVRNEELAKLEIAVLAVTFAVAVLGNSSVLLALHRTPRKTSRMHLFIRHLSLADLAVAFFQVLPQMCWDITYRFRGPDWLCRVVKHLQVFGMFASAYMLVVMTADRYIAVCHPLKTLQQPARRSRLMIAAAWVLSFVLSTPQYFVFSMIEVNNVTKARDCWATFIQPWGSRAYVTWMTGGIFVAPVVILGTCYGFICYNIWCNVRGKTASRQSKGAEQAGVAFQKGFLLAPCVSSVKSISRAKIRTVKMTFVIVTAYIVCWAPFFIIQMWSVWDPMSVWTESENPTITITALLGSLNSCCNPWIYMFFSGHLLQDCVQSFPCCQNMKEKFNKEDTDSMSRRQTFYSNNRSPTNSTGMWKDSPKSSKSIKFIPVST

Compound	IC50	Ki
Nc1nc(N)c2nc(CNc3ccc(C(=O)N[C@@H](CCC(=O)O)C(=O)O)cc3)cnc2n1 [AMINOPTERIN]	Not Active	
Nc1ccc(Cc2ccc(N)cc2)cc1	Not Active	
CCN1CCN(c2cc3c(cc2F)c(=O)c(C(=O)O)cn3C2CC2)CC1 [ENROFLOXACIN]	Not Active	
CC(C)Cc1ccc([C@H](C)C(=O)O)cc1 [DEXIBUPROFEN]	Not Active	
CO[C@H]1O[C@@H]2O[C@@]3(C)CC[C@H]4[C@H](C)CC[C@@H]([C@H]1C)[C@@]24OO3	Not Active	
Nc1ccc(C(=O)O)c(O)c1 [AMINOSALICYLIC ACID]	Not Active	
Nc1nc(F)nc2c1ncn2[C@@H]1O[C@H](CO)[C@@H](O)[C@@H]1O [FLUDARABINE]	Not Active	
CHROMIC CHLORIDE	Not Active	Not Active
O=C(O)CO [GLYCOLIC ACID]	Not Active	
COC(=O)C[C@](O)(CCC(C)(C)O)C(=O)O[C@@H]1C(OC)=C[C@]23CCCN2CCc2cc4c(cc2[C@H]13)OCO4 [HARRINGTONINE]	Not Active	
CC12CCC(CC1=O)C2(C)C (stereo unspecified) [CAMPHOR]	Not Active	
C=CCO [ALLYL ALCOHOL]	Not Active	
O=C(O)CCc1nc(-c2ccccc2)c(-c2ccccc2)o1 [OXAPROZIN]	Not Active	

Molecular target: T1, Adenosine receptor A3 (Homo sapiens, UniProt P0DMS8);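 note: radioligand binding assay with AB-MECA serving as the labeled ligand; in other assays of this panel Not Active means under 50% inhibition at 10 µM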
T1 sequence (P0DMS8 whole entry): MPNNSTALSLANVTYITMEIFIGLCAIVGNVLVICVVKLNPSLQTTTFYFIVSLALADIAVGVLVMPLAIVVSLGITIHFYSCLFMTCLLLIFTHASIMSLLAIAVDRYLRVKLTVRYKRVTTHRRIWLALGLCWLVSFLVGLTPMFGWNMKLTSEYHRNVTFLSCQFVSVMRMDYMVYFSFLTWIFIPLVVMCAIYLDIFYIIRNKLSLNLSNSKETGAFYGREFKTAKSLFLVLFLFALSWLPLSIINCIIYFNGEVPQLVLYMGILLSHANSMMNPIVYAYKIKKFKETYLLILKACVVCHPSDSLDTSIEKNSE
Type: cell membranes, CHO-K1, Membrane
Conditions: cho-k1

Compound	IC50	Ki
Nc1nc(N)c2nc(CNc3ccc(C(=O)N[C@@H](CCC(=O)O)C(=O)O)cc3)cnc2n1 [AMINOPTERIN]	Not Active	
Nc1ccc(Cc2ccc(N)cc2)cc1	Not Active	
CCN1CCN(c2cc3c(cc2F)c(=O)c(C(=O)O)cn3C2CC2)CC1 [ENROFLOXACIN]	Not Active	
CC(C)Cc1ccc([C@H](C)C(=O)O)cc1 [DEXIBUPROFEN]	Not Active	
CO[C@H]1O[C@@H]2O[C@@]3(C)CC[C@H]4[C@H](C)CC[C@@H]([C@H]1C)[C@@]24OO3	Not Active	
Nc1ccc(C(=O)O)c(O)c1 [AMINOSALICYLIC ACID]	Not Active	
Nc1nc(F)nc2c1ncn2[C@@H]1O[C@H](CO)[C@@H](O)[C@@H]1O [FLUDARABINE]	Not Active	
CHROMIC CHLORIDE	Not Active	Not Active
O=C(O)CO [GLYCOLIC ACID]	Not Active	
COC(=O)C[C@](O)(CCC(C)(C)O)C(=O)O[C@@H]1C(OC)=C[C@]23CCCN2CCc2cc4c(cc2[C@H]13)OCO4 [HARRINGTONINE]	Not Active	
CC12CCC(CC1=O)C2(C)C (stereo unspecified) [CAMPHOR]	Not Active	
C=CCO [ALLYL ALCOHOL]	Not Active	
O=C(O)CCc1nc(-c2ccccc2)c(-c2ccccc2)o1 [OXAPROZIN]	Not Active	

Tested on: not listed separately
Experiment: DRUGMATRIX: Imidazoline I2, Central radioligand binding (ligand: [3H] Idazoxan)
Type: cell membranes, Rattus norvegicus, Wistar, Cerebral cortex, Membrane
Conditions: Not Active = under 50% inhibition at 10 µM

Compound	IC50	Ki
Nc1nc(N)c2nc(CNc3ccc(C(=O)N[C@@H](CCC(=O)O)C(=O)O)cc3)cnc2n1 [AMINOPTERIN]	Not Active	Not Active
Nc1ccc(Cc2ccc(N)cc2)cc1	Not Active	Not Active
CCN1CCN(c2cc3c(cc2F)c(=O)c(C(=O)O)cn3C2CC2)CC1 [ENROFLOXACIN]	Not Active	Not Active
CC(C)Cc1ccc([C@H](C)C(=O)O)cc1 [DEXIBUPROFEN]	Not Active	Not Active
CO[C@H]1O[C@@H]2O[C@@]3(C)CC[C@H]4[C@H](C)CC[C@@H]([C@H]1C)[C@@]24OO3	Not Active	Not Active
Nc1ccc(C(=O)O)c(O)c1 [AMINOSALICYLIC ACID]	Not Active	Not Active
Nc1nc(F)nc2c1ncn2[C@@H]1O[C@H](CO)[C@@H](O)[C@@H]1O [FLUDARABINE]	Not Active	Not Active
CHROMIC CHLORIDE	Not Active	Not Active
O=C(O)CO [GLYCOLIC ACID]	Not Active	Not Active
COC(=O)C[C@](O)(CCC(C)(C)O)C(=O)O[C@@H]1C(OC)=C[C@]23CCCN2CCc2cc4c(cc2[C@H]13)OCO4 [HARRINGTONINE]	Not Active	Not Active
CC12CCC(CC1=O)C2(C)C (stereo unspecified) [CAMPHOR]	Not Active	Not Active
C=CCO [ALLYL ALCOHOL]	Not Active	Not Active
O=C(O)CCc1nc(-c2ccccc2)c(-c2ccccc2)o1 [OXAPROZIN]	Not Active	Not Active

Molecular target: Voltage-gated inwardly rectifying potassium channel KCNH2 (Homo sapiens, UniProt Q12809); note: in other assays of this panel Not Active means under 50% inhibition at 10 µM
Conditions: hek293

Sequence of Voltage-gated inwardly rectifying potassium channel KCNH2 (Q12809 whole entry): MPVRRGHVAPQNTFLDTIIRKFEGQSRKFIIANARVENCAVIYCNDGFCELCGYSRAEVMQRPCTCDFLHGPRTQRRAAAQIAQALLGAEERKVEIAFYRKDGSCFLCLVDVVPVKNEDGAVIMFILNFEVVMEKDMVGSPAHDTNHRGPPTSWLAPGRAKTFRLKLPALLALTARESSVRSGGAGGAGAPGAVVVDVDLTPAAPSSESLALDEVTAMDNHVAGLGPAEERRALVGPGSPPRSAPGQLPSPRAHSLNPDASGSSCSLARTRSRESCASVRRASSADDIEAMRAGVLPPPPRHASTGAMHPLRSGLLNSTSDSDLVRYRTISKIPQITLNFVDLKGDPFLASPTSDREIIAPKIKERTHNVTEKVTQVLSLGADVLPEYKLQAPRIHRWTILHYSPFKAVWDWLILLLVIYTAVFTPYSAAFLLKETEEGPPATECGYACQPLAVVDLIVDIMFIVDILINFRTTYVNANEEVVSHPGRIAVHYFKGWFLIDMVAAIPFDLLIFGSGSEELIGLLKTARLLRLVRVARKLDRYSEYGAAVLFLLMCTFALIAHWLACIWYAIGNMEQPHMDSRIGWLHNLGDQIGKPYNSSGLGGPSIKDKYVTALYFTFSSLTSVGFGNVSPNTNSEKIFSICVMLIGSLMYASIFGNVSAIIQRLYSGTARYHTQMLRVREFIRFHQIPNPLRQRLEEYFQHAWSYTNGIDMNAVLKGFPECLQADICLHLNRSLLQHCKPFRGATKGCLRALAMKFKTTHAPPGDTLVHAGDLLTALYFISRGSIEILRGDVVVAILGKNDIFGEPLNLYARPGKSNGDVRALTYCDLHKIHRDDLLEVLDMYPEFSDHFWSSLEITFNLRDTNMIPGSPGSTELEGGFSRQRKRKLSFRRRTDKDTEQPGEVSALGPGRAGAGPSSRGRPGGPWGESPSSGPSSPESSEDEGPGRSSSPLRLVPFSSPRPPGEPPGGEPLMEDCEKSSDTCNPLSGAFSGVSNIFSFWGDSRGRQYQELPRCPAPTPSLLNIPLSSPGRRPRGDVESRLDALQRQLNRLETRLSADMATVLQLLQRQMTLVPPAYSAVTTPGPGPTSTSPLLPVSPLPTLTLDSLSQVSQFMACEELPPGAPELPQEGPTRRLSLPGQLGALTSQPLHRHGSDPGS

Compound	IC50	Ki
Nc1nc(N)c2nc(CNc3ccc(C(=O)N[C@@H](CCC(=O)O)C(=O)O)cc3)cnc2n1 [AMINOPTERIN]	Not Active	Not Active
Nc1ccc(Cc2ccc(N)cc2)cc1	Not Active	Not Active
CCN1CCN(c2cc3c(cc2F)c(=O)c(C(=O)O)cn3C2CC2)CC1 [ENROFLOXACIN]	Not Active	Not Active
CC(C)Cc1ccc([C@H](C)C(=O)O)cc1 [DEXIBUPROFEN]	Not Active	Not Active
CO[C@H]1O[C@@H]2O[C@@]3(C)CC[C@H]4[C@H](C)CC[C@@H]([C@H]1C)[C@@]24OO3	Not Active	Not Active
Nc1ccc(C(=O)O)c(O)c1 [AMINOSALICYLIC ACID]	Not Active	Not Active
Nc1nc(F)nc2c1ncn2[C@@H]1O[C@H](CO)[C@@H](O)[C@@H]1O [FLUDARABINE]	Not Active	Not Active
CHROMIC CHLORIDE	Not Active	Not Active
O=C(O)CO [GLYCOLIC ACID]	Not Active	Not Active
COC(=O)C[C@](O)(CCC(C)(C)O)C(=O)O[C@@H]1C(OC)=C[C@]23CCCN2CCc2cc4c(cc2[C@H]13)OCO4 [HARRINGTONINE]	Not Active	Not Active
CC12CCC(CC1=O)C2(C)C (stereo unspecified) [CAMPHOR]	Not Active	Not Active
C=CCO [ALLYL ALCOHOL]	Not Active	Not Active
O=C(O)CCc1nc(-c2ccccc2)c(-c2ccccc2)o1 [OXAPROZIN]	Not Active	Not Active

Tested on: not listed separately
Experiment: DRUGMATRIX: Phorbol Ester radioligand binding (ligand: [3H] PDBu)
Type: cell membranes, Mus musculus, ICR, Brain, Membrane
Conditions: Not Active = under 50% inhibition at 10 µM

Compound	IC50	Ki
Nc1nc(N)c2nc(CNc3ccc(C(=O)N[C@@H](CCC(=O)O)C(=O)O)cc3)cnc2n1 [AMINOPTERIN]	Not Active	Not Active
Nc1ccc(Cc2ccc(N)cc2)cc1	Not Active	Not Active
CCN1CCN(c2cc3c(cc2F)c(=O)c(C(=O)O)cn3C2CC2)CC1 [ENROFLOXACIN]	Not Active	Not Active
CC(C)Cc1ccc([C@H](C)C(=O)O)cc1 [DEXIBUPROFEN]	Not Active	Not Active
CO[C@H]1O[C@@H]2O[C@@]3(C)CC[C@H]4[C@H](C)CC[C@@H]([C@H]1C)[C@@]24OO3	Not Active	Not Active
Nc1ccc(C(=O)O)c(O)c1 [AMINOSALICYLIC ACID]	Not Active	Not Active
Nc1nc(F)nc2c1ncn2[C@@H]1O[C@H](CO)[C@@H](O)[C@@H]1O [FLUDARABINE]	Not Active	Not Active
CHROMIC CHLORIDE	Not Active	Not Active
O=C(O)CO [GLYCOLIC ACID]	Not Active	Not Active
COC(=O)C[C@](O)(CCC(C)(C)O)C(=O)O[C@@H]1C(OC)=C[C@]23CCCN2CCc2cc4c(cc2[C@H]13)OCO4 [HARRINGTONINE]	Not Active	Not Active
CC12CCC(CC1=O)C2(C)C (stereo unspecified) [CAMPHOR]	Not Active	Not Active
C=CCO [ALLYL ALCOHOL]	Not Active	Not Active
O=C(O)CCc1nc(-c2ccccc2)c(-c2ccccc2)o1 [OXAPROZIN]	Not Active	Not Active
